pEC50: −log10 of the molar value. Entries after “also recorded” stand apart in the source; their conditions may differ. Like-named read-outs stand apart in the source and are kept apart here.
Columns and labels:
[1] = test system: CD16+ monocytes; assay: Killing of CD16+ monocytes by polyamine biosynthesis inhibitors (Example 6); format: cell-based, human; conditions: for comparison of effectiveness of both PBIs: FIG. 6, 10 μM, five days
Method: Mononuclear cells were isolated from individuals with HIV infection, uninfected individuals or a patient with ALS and incubated in the absence or presence of increasing concentrations of the PBIs, MGBG (PA-001) and CG47. After five days in culture under non-adherent conditions cells were isolated stained with antibodies to CD14+ and CD16+ and counted by flow cytometry using a FACSCAN (BD-biosciences). The fraction of CD14+ monocytes that expressed CD16 was determined and compared to levels seen in the absence of drug.
Those samples that were relatively resistant to PBIs required 100 μM or more of drug to achieve similar levels of killing. […] Overall 65% to 80% of samples from individuals with HAND were sensitive (>70% killing with 10 μM PBI or less) to PBIs.
The overall results with mononuclear cells from HIV infected individuals, ALS patients, and healthy controls are shown in FIG. 6. […] The number of mononuclear cell samples evaluated in each category were as follows: ALS with PA-001 (MGBG)=6, and with CG47=28. Drug resistant HIV with PA-001=22, and with CG47=48. HAD with PA-001=9, and with CG47=5. Healthy with PA-001=24, and with CG47=15.

[2] = test system: CD14/CD16+ blood macrophages from HIV positive patients; assay: Susceptibility assay: killing of CD14/CD16+ blood macrophages from HIV patients; format: cell-based; conditions: for pEC50: Homo sapiens, Macrophage, advanced HIV disease, read-out: Mean ED50
Method: The following procedures/protocols were used in some of the examples that follow. All steps were performed in a biological safety cabinet using Universal Precautions for handling human blood samples and standard aseptic techniques.
Blood was drawn in heparinized tubes (green top Vacutainer tubes from Becton-Dickson) and Percol gradient separated into peripheral blood mononuclear cells (PBMCs), according to the following procedure. Aliquots of no more than 25 mL whole blood were transferred into clean, sterile, prelabeled 50 mL conical tubes. Using a sterile 25 mL pipet, equal volume of PBS (Mg^+2/Ca^+2 free) was added to the whole blood and the tubes were inverted 2 or 3 times. […] (For example: 10 mL whole blood +10 mL PBS.)
The diluted blood was slowly and carefully layered over the sterile Percol in amounts of 15-20 mL by holding the pipet at a 45 degree angle, relative to the Percol tube, and slowly dripping the diluted blood down the side of the tube. The resulting mixture was centrifuged at 2100 RPM for 30 minutes at 25° C. The buffy coat (i.e., the white layer between the yellow plasma on top and clear Percol solution below) so obtained was then slowly aspirated, taking care not to aspirate the Percol. The buffy coat was resuspended in sterile PBS (Mg^+2/Ca^+2 free) and the volume was brought up to 50 mL. The mixture was gently mixed by slowly pipetting up and down 3 times and the cell suspension was centrifuged at 1500 RPM for 10 minutes at 25° C. The supernatant was discarded and the bottom of the tube gently tapped to dislodge the cell pellet.
The PBMC for the susceptibility assays was prepared in accordance with the following procedures. A cell culture medium was prepared by mixing RPMI+10% FBS+1% sodium pyruvate and filter sterilized using a filter unit with 0.22 micron pore size. The cell pellet was then resuspended in 3 ml of the cell culture medium. The suspension was gently mixed by slowly pipetting up and down 3 times. The cells were counted using a hemacytometer and the cell density was adjusted to 1×10^6 cells/mL in the cell culture medium, followed by mixing by slowly pipetting up and down 3 times. The cells were incubated in a 50 mL sterile polypropylene tube, at 37° C. and 5% CO2 for 1-2 days. The cap was loosened and the tubes were tipped to 30-45 degrees relative to the tray surface. A styrofoam tube rack was used to hold the tubes.
The MGBG drug was prepared in accordance with the following procedures. A primary stock of MGBG was prepared by weighing out enough MGBG to make a 1 molar (M) solution and dissolved in sterile PBS (Mg^+2/Ca^+2 free). The solution was vortexed until all of the MGBG had dissolved. A secondary stock (0.01 M) was prepared from a 1/100 dilution of the primary stock and filter sterilized by passing the solution through a 0.22 micron filter. A working stock (0.001 M or 1,000 microMolar) was prepared from a 1/10 dilution of the secondary stock. The CG47 drug was prepared by an identical procedure.
Drug doses for the susceptibility assays were prepared in accordance with the following procedures. Drug dilutions were prepared at 10-fold higher concentrations than the final desired concentrations. For example a 100 microMolar drug solution was made for a desired final concentration of 10 microMolar. The drugs were diluted an additional 1/10 upon addition to the cell suspension (e.g., 0.1 mL drug +0.9 mL cell suspension). The drug doses for the susceptibility assays were prepared right before use in cell culture media.
Susceptibility assays were conducted in accordance with the following procedures. The MGBG drug as added 1-2 days after PBMC was separated from whole blood. […]

[3] = test system: HIV DNA associated with CD14 cells; assay: HIV DNA in isolated CD14 cells after ex vivo drug exposure, quantitative DNA PCR; format: cell-based
Method: Blood from patients with advanced HIV disease was Percol gradient separated into peripheral blood mononuclear cells (PBMCs) and 5 million cells from each specimen were exposed to a 1 μM concentration of MGBG or control saline for five days. […] After the five day incubation, CD14 immunomagnetic separation with a Miltenyi separation system was performed. Separated CD14 cells from treated and untreated control specimens were evaluated for the level of HIV DNA in each specimen. C-jun, single copy DNA controls were utilized in each specimen to provide the HIV DNA/genomic equivalent values as determined by quantitative DNA PCR analysis as described in Mack, K. D., et al. JAIDS (2003) 33: 308-20. […]
Blood from three patients with advanced HIV disease was Percol gradient separated into peripheral blood mononuclear cells (PBMC's) and 5 million cells from each specimen were exposed to a 10 micromolar concentration of the polyamine analog CG47 or control saline for 5 days. […] Separated CD14 cells from treated and untreated control specimens were evaluated for the level of HIV DNA in each specimen. C-jun, single copy DNA controls were utilized in each specimen to provide the HIV DNA/genomic equivalent values as determined by quantitative DNA PCR analysis as described in Mack et al. (JAIDS). […]

[4] = test system: CD14+ CD16+ monocytes; assay: In vitro killing of cultured rhesus macaque monocytes; format: cell-based
Method: Dose response experiments with MGBG were performed to assess its ability to kill CD14+ CD16+ monocytes in nonadherent PBMC cultures.

[5] = patients, Int. J. Cancer 26, 571 (1980); cited from earlier work

Structure (SMILES) | changes in lymphocyte levels ([1]; 10 μM or less) | comparison of effectiveness of both PBIs [1] | killing of the CD14/CD16 blood macrophage population ([2]; 10 micromolar, 5 days, PBMCs of three patients with advanced HIV disease) | sensitivity of CD14/CD16+ macrophages from the HIV patient ([2]; FIG. 4, ex vivo) | pEC50 ([2]; CG47, mean of 13 patients) | reduction in HIV DNA associated with CD14 cells (average) ([3]; 10 micromolar, 5 days, three blood specimens) | activated monocytes killed ([4]; 10 μM, five-day assay, monkey n=4) | decrease of CD14+ CD16+ monocytes, dose dependence ([4]; nonadherent PBMC cultures, five days) | killing of CD14/16+ cells that contain HIV DNA ([2]; 1 μM) | killing of the CD14/CD16 blood macrophage population ([2]; 1 μM, five days, PBMCs of patients with advanced HIV disease) | killing of HIV infected macrophages, dose dependence ([2]; HIV positive patients, FIG. 1) | killing of HIV-infected macrophages from HAD patients ([2]; HIV-associated dementia (HAD) patients, compared with HIV positive) | pEC50 ([2]; MGBG, mean of 10 patients) | toxicity in an anti-cancer regimen [5] | reduction in HIV DNA associated with CD14 cells (average) ([3]; 1 μM, five days)
CCNCCCNC/C=C\CNCCCNCC.Cl.Cl.Cl.Cl [CG47, N,N′-bis(3-ethylaminopropyl)-cis-but-2-ene-1,4-diamine tetrahydrochloride] | little or no changes | approximately equivalently effective | > 80% | extremely sensitive | 5.46 | > 90% |  |  |  |  |  |  |  |  | 
CC(/C=N/NC(=N)N)=N\NC(=N)N [MGBG] |  | approximately equivalently effective |  |  |  |  | 80% | dose-dependent decrease | Complete killing; also recorded: near quantitative | > 80% | dose-dependent | nearly as effective | 6.33 | unacceptably toxic | > 99%
